Source: the NIST ThermoML archive (doi:10.1016/j.jct.2014.02.022)
Numbers after ± are expanded uncertainties.

Key:
[1] = mn = molality of the nth substance listed, in mol/kg; settings: 101 kPa, Liquid; for viscosity: Capillary tube (Ostwald / Ubbelohde) method; for mass density: Vibrating tube method
[2] = 101 kPa, Liquid; for viscosity: Capillary tube (Ostwald / Ubbelohde) method; for mass density: Vibrating tube method

Structure (SMILES): CO [methanol] + Cc1ncc(CO)c(CO)c1O.Cl
- viscosity ([1]; 298.15 K, m2 = 0): 0.543 ± 0.011 mPa·s
- mass density ([1]; 298.15 K, m2 = 0): 786.67 ± 1 kg/m3
- viscosity ([1]; 308.15 K, m2 = 0): 0.4708 ± 0.0099 mPa·s
- mass density ([1]; 308.15 K, m2 = 0): 777.18 ± 1 kg/m3
- viscosity ([1]; 318.15 K, m2 = 0): 0.4194 ± 0.0088 mPa·s
- mass density ([1]; 318.15 K, m2 = 0): 767.75 ± 1 kg/m3

Structure (SMILES): CO [methanol]
- viscosity ([2]; 298.15 K): 0.543 ± 0.011 mPa·s
- mass density ([2]; 298.15 K): 786.67 ± 1 kg/m3
- viscosity ([2]; 308.15 K): 0.4708 ± 0.0099 mPa·s
- mass density ([2]; 308.15 K): 777.18 ± 1 kg/m3
- viscosity ([2]; 318.15 K): 0.4194 ± 0.0088 mPa·s
- mass density ([2]; 318.15 K): 767.75 ± 1 kg/m3

Structure (SMILES): Cc1ncc(CO)c(CO)c1O.Cl [5-hydroxy-6-methyl-3,4-pyridinedimethanol hydrochloride] + CO
- viscosity ([1]; 298.15 K, m1 = 0.0127): 0.5562 ± 0.012 mPa·s
- viscosity ([1]; 298.15 K, m1 = 0.0254): 0.5621 ± 0.012 mPa·s
- viscosity ([1]; 298.15 K, m1 = 0.0382): 0.5712 ± 0.012 mPa·s
- mass density ([1]; 298.15 K, m1 = 0.0127): 789.07 ± 1 kg/m3
- mass density ([1]; 298.15 K, m1 = 0.0254): 789.94 ± 1 kg/m3
- mass density ([1]; 298.15 K, m1 = 0.0382): 790.86 ± 1 kg/m3
- viscosity ([1]; 308.15 K, m1 = 0.0127): 0.4853 ± 0.01 mPa·s
- viscosity ([1]; 308.15 K, m1 = 0.0254): 0.4955 ± 0.01 mPa·s
- viscosity ([1]; 308.15 K, m1 = 0.0382): 0.5034 ± 0.011 mPa·s
- mass density ([1]; 308.15 K, m1 = 0.0127): 778.65 ± 1 kg/m3
- mass density ([1]; 308.15 K, m1 = 0.0254): 779.85 ± 1 kg/m3
- mass density ([1]; 308.15 K, m1 = 0.0382): 780.83 ± 1 kg/m3
- viscosity ([1]; 318.15 K, m1 = 0.0127): 0.4275 ± 0.009 mPa·s
- viscosity ([1]; 318.15 K, m1 = 0.0254): 0.4468 ± 0.0094 mPa·s
- viscosity ([1]; 318.15 K, m1 = 0.0382): 0.464 ± 0.0098 mPa·s
- mass density ([1]; 318.15 K, m1 = 0.0127): 769.25 ± 1 kg/m3
- mass density ([1]; 318.15 K, m1 = 0.0254): 770.18 ± 1 kg/m3
- mass density ([1]; 318.15 K, m1 = 0.0382): 771.13 ± 1 kg/m3
